Measurements taken from PubChem BioAssay (NCI).
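Briefly, cells in 96-well plates were exposed to five compound concentrations for 48 h, and endpoints were estimated by linear interpolation. Here, GI50 denotes the concentration required for 50% inhibition of growth. Definition used: TGI = concentration required for complete inhibition of growth.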

Tests used:
Assay in all cases: DTP human tumour cell line panel, 48 h
MOLT-4 leukemia = tested on: MOLT-4 leukemia
T-47D breast = tested on: T-47D breast
NCI-H226 lung = tested on: NCI-H226 lung
OVCAR-5 ovarian = tested on: OVCAR-5 ovarian
UO-31 renal = tested on: UO-31 renal
COLO 205 colon = tested on: COLO 205 colon
UACC-257 melanoma = tested on: UACC-257 melanoma
SK-MEL-2 melanoma = tested on: SK-MEL-2 melanoma
786-0 renal = tested on: 786-0 renal
HL-60(TB) leukemia = tested on: HL-60(TB) leukemia
SF-539 CNS = tested on: SF-539 CNS
UACC-62 melanoma = tested on: UACC-62 melanoma
SNB-75 CNS = tested on: SNB-75 CNS
MDA-MB-435 = tested on: MDA-MB-435
A549 NSCLC = tested on: A549 NSCLC
HOP-62 NSCLC = tested on: HOP-62 NSCLC
NCI-H522 lung = tested on: NCI-H522 lung
NCI-H23 lung = tested on: NCI-H23 lung
HCT-15 colon = tested on: HCT-15 colon
HS 578T breast = tested on: HS 578T breast
NCI-H460 lung = tested on: NCI-H460 lung
MCF7 breast = tested on: MCF7 breast
M14 melanoma = tested on: M14 melanoma
SW-620 colon = tested on: SW-620 colon
PC-3 prostate = tested on: PC-3 prostate
HT29 colon = tested on: HT29 colon
KM12 colon = tested on: KM12 colon
EKVX NSCLC = tested on: EKVX NSCLC
DU-145 prostate = tested on: DU-145 prostate
LOX IMVI melanoma = tested on: LOX IMVI melanoma
K-562 leukemia = tested on: K-562 leukemia
MALME-3M melanoma = tested on: MALME-3M melanoma
A498 renal = tested on: A498 renal
U251 CNS = tested on: U251 CNS
SF-295 CNS = tested on: SF-295 CNS
CAKI-1 renal = tested on: CAKI-1 renal
CCRF-CEM leukemia = tested on: CCRF-CEM leukemia
IGROV1 ovarian = tested on: IGROV1 ovarian
SK-MEL-5 melanoma = tested on: SK-MEL-5 melanoma
RXF 393 renal = tested on: RXF 393 renal
SR leukemia = tested on: SR leukemia
SN12C renal = tested on: SN12C renal
OVCAR-4 ovarian = tested on: OVCAR-4 ovarian
MDA-MB-231 breast = tested on: MDA-MB-231 breast
NCI/ADR-RES ovarian = tested on: NCI/ADR-RES ovarian
HOP-92 NSCLC = tested on: HOP-92 NSCLC
BT-549 breast = tested on: BT-549 breast
ACHN renal = tested on: ACHN renal
HCT-116 colon = tested on: HCT-116 colon
RPMI-8226 leukemia = tested on: RPMI-8226 leukemia
HCC-2998 colon = tested on: HCC-2998 colon
SNB-19 CNS = tested on: SNB-19 CNS
SK-OV-3 ovarian = tested on: SK-OV-3 ovarian
OVCAR-8 ovarian = tested on: OVCAR-8 ovarian
SF-268 CNS = tested on: SF-268 CNS
SK-MEL-28 melanoma = tested on: SK-MEL-28 melanoma

SMILES: COc1cccc(Nc2nccc(-c3cnn4ncccc34)n2)c1
- GI50 (MOLT-4 leukemia): 78 nM
- GI50 (T-47D breast): 77.6 nM
- TGI (T-47D breast): 428 nM
- GI50 (NCI-H226 lung): 54.6 nM
- TGI (NCI-H226 lung): 180 nM
- GI50 (OVCAR-5 ovarian): 81.2 nM
- TGI (OVCAR-5 ovarian): > 25000 nM
- GI50 (UO-31 renal): 70.7 nM
- TGI (UO-31 renal): 210 nM
- GI50 (COLO 205 colon): 43.3 nM
- TGI (COLO 205 colon): 98.8 nM
- GI50 (UACC-257 melanoma): 56.3 nM
- TGI (UACC-257 melanoma): 160 nM
- GI50 (SK-MEL-2 melanoma): 57.2 nM
- TGI (SK-MEL-2 melanoma): 138 nM
- GI50 (786-0 renal): 87.1 nM
- TGI (786-0 renal): > 25000 nM
- GI50 (HL-60(TB) leukemia): 55.3 nM
- TGI (HL-60(TB) leukemia): 163 nM
- GI50 (SF-539 CNS): 50.2 nM
- TGI (SF-539 CNS): 143 nM
- GI50 (UACC-62 melanoma): 48.6 nM
- TGI (UACC-62 melanoma): 139 nM
- GI50 (SNB-75 CNS): 46.3 nM
- TGI (SNB-75 CNS): 122 nM
- GI50 (MDA-MB-435): 60.9 nM
- TGI (MDA-MB-435): 250 nM
- GI50 (A549 NSCLC): 69.8 nM
- GI50 (HOP-62 NSCLC): 79.8 nM
- TGI (HOP-62 NSCLC): 532 nM
- GI50 (NCI-H522 lung): 122 nM
- TGI (NCI-H522 lung): 767 nM
- GI50 (NCI-H23 lung): 53.2 nM
- TGI (NCI-H23 lung): 201 nM
- GI50 (HCT-15 colon): 69.7 nM
- TGI (HCT-15 colon): > 25000 nM
- GI50 (HS 578T breast): 38.1 nM
- TGI (HS 578T breast): 117 nM
- GI50 (NCI-H460 lung): 75.4 nM
- TGI (NCI-H460 lung): > 25000 nM
- GI50 (MCF7 breast): 76 nM
- TGI (MCF7 breast): > 25000 nM
- GI50 (M14 melanoma): 77.7 nM
- TGI (M14 melanoma): 340 nM
- GI50 (SW-620 colon): 73.9 nM
- TGI (SW-620 colon): > 12300 nM
- GI50 (PC-3 prostate): 65.2 nM
- TGI (PC-3 prostate): 1320 nM
- GI50 (HT29 colon): 51.3 nM
- TGI (HT29 colon): 198 nM
- GI50 (KM12 colon): 62.9 nM
- TGI (KM12 colon): 367 nM
- GI50 (EKVX NSCLC): 70.9 nM
- GI50 (DU-145 prostate): 88.4 nM
- TGI (DU-145 prostate): > 25000 nM
- GI50 (LOX IMVI melanoma): 27.5 nM
- TGI (LOX IMVI melanoma): > 25000 nM
- GI50 (K-562 leukemia): 115 nM
- TGI (K-562 leukemia): > 25000 nM
- GI50 (MALME-3M melanoma): 73.9 nM
- TGI (MALME-3M melanoma): 204 nM
- GI50 (A498 renal): 48.3 nM
- TGI (A498 renal): 126 nM
- GI50 (U251 CNS): 55.3 nM
- TGI (U251 CNS): 9240 nM
- GI50 (SF-295 CNS): 49.6 nM
- TGI (SF-295 CNS): > 25000 nM
- GI50 (CAKI-1 renal): 57.3 nM
- TGI (CAKI-1 renal): 3770 nM
- GI50 (CCRF-CEM leukemia): 72.3 nM
- GI50 (IGROV1 ovarian): 101 nM
- TGI (IGROV1 ovarian): > 25000 nM
- GI50 (SK-MEL-5 melanoma): 58.8 nM
- TGI (SK-MEL-5 melanoma): 561 nM
- GI50 (RXF 393 renal): 44.9 nM
- TGI (RXF 393 renal): 108 nM
- GI50 (SR leukemia): 11.4 nM
- TGI (SR leukemia): 94.6 nM
- GI50 (SN12C renal): 83.7 nM
- TGI (SN12C renal): > 25000 nM
- GI50 (OVCAR-4 ovarian): 90.3 nM
- TGI (OVCAR-4 ovarian): 17800 nM
- GI50 (MDA-MB-231 breast): 83.9 nM
- TGI (MDA-MB-231 breast): > 25000 nM
- GI50 (NCI/ADR-RES ovarian): 67.9 nM
- GI50 (HOP-92 NSCLC): 39.2 nM
- TGI (HOP-92 NSCLC): 157 nM
- GI50 (BT-549 breast): 71.4 nM
- TGI (BT-549 breast): 6710 nM
- GI50 (ACHN renal): 45.6 nM
- TGI (ACHN renal): > 25000 nM
- GI50 (HCT-116 colon): 47.8 nM
- TGI (HCT-116 colon): > 11000 nM
- GI50 (RPMI-8226 leukemia): 62.1 nM
- TGI (RPMI-8226 leukemia): 166 nM
- GI50 (HCC-2998 colon): 67.1 nM
- TGI (HCC-2998 colon): 238 nM
- GI50 (SNB-19 CNS): 83.3 nM
- TGI (SNB-19 CNS): > 25000 nM
- GI50 (SK-OV-3 ovarian): 151 nM
- TGI (SK-OV-3 ovarian): > 25000 nM
- GI50 (OVCAR-8 ovarian): 68.1 nM
- TGI (OVCAR-8 ovarian): > 25000 nM
- GI50 (SF-268 CNS): 72.1 nM
- TGI (SF-268 CNS): 1420 nM
- GI50 (SK-MEL-28 melanoma): 39.5 nM
- TGI (SK-MEL-28 melanoma): 140 nM
